Results taken from patent EP0570196B1, “Oxime derivatives” (ZENECA LIMITED, priority 1992, dated 1993).

Key:
5-LO [1] = molecular target: T1, 5-LO (Homo sapiens, UniProt P09917); assay: Test a): in vitro heparinised human blood challenged with calcium ionophore A23187, radioimmunoassay of LTB₄; type: cell-based; conditions: heparinised human blood, A23187 challenge; read-out: IC₅₀ against LTB₄ in test a)
T1 construct: incubating a test compound with heparinised human blood, prior to challenge with the calcium ionophore A23187; endogenous in cells; host or cells: heparinised human whole blood (blood cells)
T1 sequence (P09917 1-674): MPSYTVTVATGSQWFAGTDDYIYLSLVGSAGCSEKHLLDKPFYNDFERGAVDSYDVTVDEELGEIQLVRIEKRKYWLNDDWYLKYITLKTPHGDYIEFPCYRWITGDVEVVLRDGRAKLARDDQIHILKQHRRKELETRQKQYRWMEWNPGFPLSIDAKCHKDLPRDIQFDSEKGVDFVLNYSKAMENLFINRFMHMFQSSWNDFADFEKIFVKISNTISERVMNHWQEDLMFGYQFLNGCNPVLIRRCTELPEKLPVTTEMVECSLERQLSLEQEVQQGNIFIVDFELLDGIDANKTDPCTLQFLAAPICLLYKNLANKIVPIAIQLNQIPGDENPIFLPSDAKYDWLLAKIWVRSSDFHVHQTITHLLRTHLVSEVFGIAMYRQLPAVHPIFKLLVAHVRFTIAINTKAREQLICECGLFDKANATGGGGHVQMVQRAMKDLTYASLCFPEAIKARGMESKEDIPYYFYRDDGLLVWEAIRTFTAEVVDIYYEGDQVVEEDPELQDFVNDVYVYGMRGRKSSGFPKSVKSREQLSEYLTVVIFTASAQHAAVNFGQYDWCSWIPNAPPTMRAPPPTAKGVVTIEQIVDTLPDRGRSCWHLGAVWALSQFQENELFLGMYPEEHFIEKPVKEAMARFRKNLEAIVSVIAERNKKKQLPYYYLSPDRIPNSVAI
From the text: As stated previously, the compounds of the formula I are inhibitors of the enzyme 5-LO. […] J. Pharmacol., 1985, 84, 34P) which involve the use of a protein-LTB₄ conjugate produced using the procedure of Young et alia (Prostaglandins, 1983, 26(4), 605-613). The effects of a test compound on the enzyme cyclooxygenase (which is involved in the alternative metabolic pathway for arachidonic acid and gives rise to prostaglandins, thromboxanes and related metabolites) may be measured at the same time using the specific radioimmunoassay for thromboxane B₂(TxB₂) described by Carey and Forder (see above). This test provides an indication of the effects of a test compound against 5-LO and also cyclooxygenase in the presence of blood cells and proteins. It permits the selectivity of the inhibitory effect on 5-LO or cyclooxygenase to be assessed. • b) An ex vivo assay system, which is a variation of test a) above, involving administration to a group of rats of a test compound (usually orally as the suspension produced when a solution of the test compound in dimethylsulphoxide is added to carboxymethylcellulose), blood collection, heparinisation, challenge with A23187 and radioimmunoassay of LTB₄ and TxB₂. […]

5-LO [2] = assay: Test c): in vivo zymosan-induced LTB₄ liberation in a subcutaneous air pouch of male rats; conditions: rat air pouch, 3 hours

| Compound | IC50 (5-LO [1]) | oral ED₅₀ versus LTB₄ in test c) (5-LO [2]) |
| --- | --- | --- |
| COC1(c2cc(F)cc(Sc3ccc(C(C)ON=C(C)C)cc3)c2)CCOCC1 (stereo not drawn) [Example 2, acetone 0-{4-[5-fluoro-3-(4-methoxytetrahydropyran-4-yl)phenylthio)-α-methylbenzyl}oxime] | 90 nM | approximately 1.5 mg/kg |
| COC1(c2cc(F)cc(Sc3ccc(CON=C(C)C)cc3)c2)CCOCC1 [Example 1, acetone 0-{4-[5-fluoro-3-(4-methoxytetrahydropyran-4-yl)phenylthio]benzyl}oxime] | 150 nM | approximately 1 mg/kg |
